How the values were obtained:
Assay in all cases: relative viability (nuclei count vs DMSO), 5 days (fraction); higher = more cells survive
CUDC-101 + Pemetrexed = compound: C#Cc1cccc(Nc2ncnc3cc(OC)c(OCCCCCCC(=O)NO)cc23)c1 [CUDC-101] + Nc1nc2[nH]cc(CCc3ccc(C(=O)N[C@@H](CCC(=O)O)C(=O)O)cc3)c2c(=O)[nH]1 [Pemetrexed] (partner 0.2 µM)
In short: (§1)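 Five library-drug doses in √10 steps were combined with a fixed anchor-drug dose, or a single drug was given alone, by pin tool to lung cancer cell lines in 1536-well plates the day after seeding. Nuclei were stained and counted after 5 days. Relative viability is the nuclei count in treated wells over that in vehicle wells, taken as the median of duplicate plates.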

[1] = compound: C1=CC=C2C(=C1)N=C(S2)C(C#N)C3=NC(=NC=C3)NCCC4=CN=CC=C4 + C[C@@H](Oc1cc(-c2cnn(C3CCNCC3)c2)cnc1N)c1c(Cl)ccc(F)c1Cl [Crizotinib] (partner 1 µM)
In short: as §1

CUDC-101 + Phenformin = compound: C#Cc1cccc(Nc2ncnc3cc(OC)c(OCCCCCCC(=O)NO)cc23)c1 [CUDC-101] + N=C(N)NC(=N)NCCc1ccccc1 [Phenformin] (partner 250 µM)
In short: as §1

NVP-TAE684 + Dasatinib = compound: COc1cc(N2CCC(N3CCN(C)CC3)CC2)ccc1Nc1ncc(Cl)c(Nc2ccccc2S(=O)(=O)C(C)C)n1 [NVP-TAE684] + Cc1nc(Nc2ncc(C(=O)Nc3c(C)cccc3Cl)s2)cc(N2CCN(CCO)CC2)n1 [Dasatinib] (partner 0.075 µM)
In short: as §1

Row | Cell Line | relative viability (CUDC-101 + Pemetrexed; first compound 0.01 µM) | relative viability (CUDC-101 + Pemetrexed; first compound 0.03162 µM) | relative viability (CUDC-101 + Pemetrexed; first compound 0.1 µM) | relative viability (CUDC-101 + Pemetrexed; first compound 0.3162 µM) | relative viability (CUDC-101 + Pemetrexed; first compound 1 µM) | relative viability ([1]; first compound 0.005 µM) | relative viability ([1]; first compound 0.01581 µM) | relative viability ([1]; first compound 0.05 µM) | relative viability ([1]; first compound 0.1581 µM) | relative viability ([1]; first compound 0.5 µM) | relative viability (CUDC-101 + Phenformin; first compound 0.01 µM) | relative viability (CUDC-101 + Phenformin; first compound 0.03162 µM) | relative viability (CUDC-101 + Phenformin; first compound 0.1 µM) | relative viability (CUDC-101 + Phenformin; first compound 0.3162 µM) | relative viability (CUDC-101 + Phenformin; first compound 1 µM) | relative viability (NVP-TAE684 + Dasatinib; first compound 0.2 µM) | relative viability (NVP-TAE684 + Dasatinib; first compound 0.6325 µM) | relative viability (NVP-TAE684 + Dasatinib; first compound 2 µM)
1 | NCI-H1755 | 0.425 | 0.42 | 0.441 | 0.407 | 0.384 | 0.809 | 0.964 | 0.844 | 1.02 | 0.831 | 0.587 | 0.629 | 0.319 | 0.645 | 0.534 | 0.333 | 0.276 | 0.0732
2 | NCI-H838 | 0.332 | 0.248 | 0.257 | 0.26 | 0.198 | 0.546 | 0.87 | 0.817 | 0.861 | 0.555 | 0.64 | 0.564 | 0.696 | 0.712 | 0.404 | 0.295 | 0.23 | 0.238
3 | NCI-H2228 | 0.352 | 0.359 | 0.333 | 0.392 | 0.346 | 0.464 | 0.444 | 0.483 | 0.454 | 0.386 | 0.27 | 0.272 | 0.29 | 0.403 | 0.254 | 0.206 | 0.0665 | 0.0894
4 | NCI-H1563 | 0.78 | 0.758 | 0.844 | 0.773 | 0.512 | 0.86 | 0.843 | 0.838 | 0.814 | 0.815 | 0.664 | 0.643 | 0.745 | 0.613 | 0.659 | 0.443 | 0.423 | 0.382
5 | NCI-H661 | 0.956 | 0.903 | 0.953 | 0.968 | 0.631 | 1.24 | 1.26 | 0.99 | 1.06 | 0.98 | 0.284 | 0.291 | 0.291 | 0.311 | 0.246 | 1.09 | 0.677 | 0.622
6 | EKVX | 0.395 | 0.435 | 0.442 | 0.373 | 0.35 | 0.775 | 1.03 | 0.986 | 0.895 | 0.573 | 0.255 | 0.229 | 0.211 | 0.244 | 0.222 | 0.367 | 0.469 | 0.202
7 | NCI-H1650 | 0.381 | 0.297 | 0.389 | 0.397 | 0.351 | 0.609 | 0.852 | 0.865 | 1.01 | 0.57 | 0.405 | 0.313 | 0.36 | 0.452 | 0.188 | 0.378 | 0.19 | 0.137
8 | HCC-827 | 0.237 | 0.241 | 0.163 | 0.137 | 0.138 | 0.874 | 0.945 | 0.907 | 0.958 | 0.905 | 0.376 | 0.18 | 0.161 | 0.143 | 0.14 | 0.262 | 0.241 | 0.124
9 | NCI-H2170 | 0.281 | 0.257 | 0.24 | 0.234 | 0.254 |  | 1.33 | 1.1 | 1.31 | 1.05 | 0.407 | 0.377 | 0.459 | 0.439 | 0.375 | 0.588 | 0.477 | 0.368
10 | NCI-H2009 | 1.05 | 1.02 | 1.02 | 0.994 | 0.997 | 1 | 0.991 | 0.97 | 1.08 | 0.976 | 0.511 | 0.496 | 0.534 | 0.499 | 0.404 | 0.207 | 0.157 | 0.172
11 | NCI-H1437 | 0.336 | 0.306 | 0.337 | 0.31 | 0.316 | 0.66 | 1.09 | 0.932 | 1.09 | 0.679 | 0.313 | 0.341 | 0.275 | 0.275 | 0.392 | 0.363 | 0.272 | 0.128
12 | NCI-H2087 | 0.681 | 0.699 | 0.648 | 0.605 | 0.678 | 0.908 | 0.807 | 0.76 | 0.954 | 0.727 | 0.403 | 0.465 | 0.439 | 0.413 | 0.316 | 0.573 | 0.694 | 0.225
13 | LCLC-103H | 0.472 | 0.537 | 0.486 | 0.456 | 0.429 | 1.12 | 1.03 | 1 | 1.13 | 0.964 | 0.384 | 0.367 | 0.36 | 0.357 | 0.31 | 0.568 | 0.464 | 0.168
14 | PC-14 | 0.154 | 0.129 | 0.156 | 0.138 | 0.152 | 0.856 | 0.961 | 0.929 | 0.972 | 0.744 | 0.854 | 0.476 | 0.22 | 0.193 | 0.0975 | 0.242 | 0.11 | 0.0369
15 | H3255 | 0.62 | 0.543 | 0.408 | 0.449 | 0.304 | 0.722 | 0.811 | 0.911 | 0.937 | 0.824 | 0.367 | 0.322 |  | 0.31 | 0.166 | 0.318 | 0.274 | 0.23
16 | NCI-H460 | 0.0606 | 0.0635 | 0.0676 | 0.0669 | 0.0703 |  | 0.908 | 0.71 | 0.873 | 0.902 | 0.528 | 0.501 | 0.554 | 0.526 | 0.486 | 0.703 | 0.285 | 0.0445
17 | HOP-62 | 0.295 | 0.355 | 0.346 | 0.349 | 0.311 | 0.779 | 0.815 | 0.675 | 1.01 | 0.725 | 0.628 | 0.656 | 0.758 | 0.683 | 0.545 | 0.444 | 0.509 | 0.201
